Measured values taken from the supplement of paper PMC10307832.

Assays:
Experiment in all cases: relative viability (nuclei count vs DMSO), 5 days (fraction); higher = more cells survive
[1] = compound: COc1cc2ncn(-c3cc(OCc4ccccc4C(F)(F)F)c(C(N)=O)s3)c2cc1OC + Nc1nc2[nH]cc(CCc3ccc(C(=O)N[C@@H](CCC(=O)O)C(=O)O)cc3)c2c(=O)[nH]1 [Pemetrexed] (partner 0.2 µM)
Procedure, shortened: (§1)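 Relative viability is defined as nuclei in treated wells over nuclei in vehicle wells. Duplicate plates were run and medians reported. Lung cancer cell lines in 1536-well plates were dosed by pin tool one day after seeding, with one drug or with a fixed anchor-drug dose plus five library-drug doses (not always all listed) in √10 steps, and nuclei were counted after 5 days.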

[2] = compound: COc1cc2ncn(-c3cc(OCc4ccccc4C(F)(F)F)c(C(N)=O)s3)c2cc1OC + CC(=O)c1c(C)c2cnc(Nc3ccc(N4CCNCC4)cn3)nc2n(C2CCCC2)c1=O [Palbociclib] (partner 0.5 µM)
Procedure, shortened: as §1

[3] = compound: COc1cc2ncn(-c3cc(OCc4ccccc4C(F)(F)F)c(C(N)=O)s3)c2cc1OC + Cc1nc(NC(=O)N2CCC[C@H]2C(N)=O)sc1-c1ccnc(C(C)(C)C(F)(F)F)c1 [Alpelisib] (partner 2 µM)
Procedure, shortened: as §1

[4] = compound: COc1cc2ncn(-c3cc(OCc4ccccc4C(F)(F)F)c(C(N)=O)s3)c2cc1OC + O=C(c1cc(Cc2n[nH]c(=O)c3ccccc23)ccc1F)N1CCN(C(=O)C2CC2)CC1 [Olaparib] (partner 8 µM)
Procedure, shortened: as §1

| Cell Line | relative viability ([1]; first compound 0.05 µM) | relative viability ([1]; first compound 0.1581 µM) | relative viability ([1]; first compound 0.5 µM) | relative viability ([1]; first compound 1.581 µM) | relative viability ([1]; first compound 5 µM) | relative viability ([2]; first compound 0.05 µM) | relative viability ([2]; first compound 0.1581 µM) | relative viability ([2]; first compound 0.5 µM) | relative viability ([2]; first compound 1.581 µM) | relative viability ([2]; first compound 5 µM) | relative viability ([3]; first compound 0.05 µM) | relative viability ([3]; first compound 0.1581 µM) | relative viability ([3]; first compound 0.5 µM) | relative viability ([3]; first compound 1.581 µM) | relative viability ([3]; first compound 5 µM) | relative viability ([4]; first compound 0.05 µM) | relative viability ([4]; first compound 0.1581 µM) | relative viability ([4]; first compound 0.5 µM) | relative viability ([4]; first compound 1.581 µM) | relative viability ([4]; first compound 5 µM) |
| --- | --- | --- | --- | --- | --- | --- | --- | --- | --- | --- | --- | --- | --- | --- | --- | --- | --- | --- | --- | --- |
| HCC-366 | 0.166 | 0.155 | 0.0748 | 0.0321 | 0.0197 | 0.136 | 0.372 | 0.248 | 0.0295 | 0.0149 | 0.656 | 0.246 | 0.123 | 0.0134 | 0.0086 | 0.204 | 0.273 | 0.0764 | 0.0193 | 0.0147 |
| HCC-827 | 0.269 | 0.304 | 0.227 | 0.259 | 0.263 | 0.442 | 0.391 | 0.486 | 0.424 | 0.217 | 0.887 | 1.03 | 0.667 | 0.286 | 0.226 | 0.575 | 0.547 | 0.452 | 0.306 | 0.179 |
| HOP-62 | 0.261 | 0.302 | 0.265 | 0.123 | 0.0991 | 0.411 | 0.417 | 0.403 | 0.148 | 0.107 | 1.02 | 0.837 | 0.752 | 0.199 | 0.116 | 0.387 | 0.38 | 0.302 |  | 0.116 |
| IA-LM |  |  |  |  |  |  |  |  |  |  | 0.701 | 0.493 | 0.107 | 0.0655 | 0.0465 | 0.75 | 0.602 | 0.123 | 0.0768 | 0.0783 |
| LC-2-ad | 0.244 | 0.281 | 0.248 | 0.213 | 0.171 | 0.457 | 0.422 | 0.401 | 0.237 | 0.194 | 0.791 | 0.784 | 0.135 | 0.113 | 0.1 | 0.431 | 0.593 | 0.466 | 0.173 | 0.176 |
| LCLC-97TM1 | 0.215 | 0.217 | 0.147 | 0.11 | 0.0881 | 0.216 | 0.191 | 0.17 | 0.0856 | 0.111 | 0.244 | 0.238 | 0.144 | 0.139 | 0.127 | 0.201 | 0.222 | 0.189 | 0.0731 | 0.0698 |
| LCLC-103H | 0.449 | 0.48 | 0.442 | 0.27 | 0.195 | 0.477 | 0.471 | 0.456 | 0.35 | 0.302 | 0.966 | 1.04 | 0.997 | 0.389 | 0.248 | 0.687 | 0.768 | 0.651 | 0.281 | 0.212 |
| LK-2 | 0.386 | 0.268 | 0.168 | 0.115 | 0.0951 | 0.78 | 0.293 | 0.444 | 0.252 | 0.113 | 1.13 | 0.957 | 0.575 | 0.298 | 0.263 | 0.681 | 0.345 | 0.215 | 0.16 | 0.0981 |
